Results as given in patent US20260273074A1, “FERRITIN-TARGETING PROTACS AND METHODS OF INDUCING PYROPTOSIS” (Wisconsin Alumni Research Foundation, priority 2023, published 2026).
Where two headings read alike, the source gives them in different places.

Columns and labels:
ferritin (Mus musculus) [1] = test system: T1, ferritin (Mus musculus); test: Quantitative proteomics analysis of whole-cell B16F10 proteins; type: cell-based, murine; settings: B16F10 cells, 0.5 μM, 12 h
T1 construct: ferritin expression levels in B16F10 cells were evaluated; endogenous in cells; host or cells: B16F10 (murine melanoma)
Experimental: Quantitative proteomics analysis: Cell culture and proteomic sample preparation: B16F10 cells were seeded in T75 cell culture flasks (2×10^6 cells per well) and cultured for 24 h. […] After incubation for 12 h, cells were washed with cold PBS twice and digested with 2 mL trypsin. The cell pellets were collected in 1.5 mL Eppendorf tubes through centrifugation at 1200 rpm for 3 minutes at 4° C. As for the proteomic sample preparation, cell pellets placed on the ice were completely resuspended with a cold 100 mM ammonium bicarbonate (ABC) solution. […] Based on the quantification results, an appropriate volume of lysate supernatant containing 20 μg proteins was collected and incubated with 10 mM DL-dithiothreitol (DTT) at 37° C. for 30 min. […]
LC-MS/MS analysis: The LC separations were performed with a Waters™ Nano-Acquity UPLC System. […] Eluted peptides were analyzed on Thermo Orbitrap Q-Exactive™ MS operated in positive ion mode with nano-ESI high-resolution Q-Exactive™ analysis. […]
Data analysis: All the resulting raw files were analyzed using Proteome Discoverer software v.2.4 (Thermo Fisher Scientific), SEQUEST HT using Uniprot Mus musculus reference proteome with a decoy database added to establish control variability and false discovery rates. […]

ferritin (Mus musculus) [2] = test system: T1, ferritin (Mus musculus); test: Western blot of ferritin expression (ferritin degradation) in B16F10 cells; type: cell-based, murine; settings: B16F10 cells
Experimental: Western blot analysis: After various treatments, ferritin expression levels in B16F10 cells were evaluated to investigate the DeFer-2-mediated ferritin degradation. Briefly, B16F10 cells were seeded in 6-well culture plates (5×10^4 cells per well) and cultured for 24 h. Then the medium in the corresponding wells except the negative control was replaced with 1 mL of medium containing ferritin degraders, albumin nanoparticles, the epimer formulations, the combination of VHL ligand and oleic acid, or the combination of the degrader and VHL ligand at the indicated concentrations. […] The lysates were centrifuged at 12,000 rpm for 10 min at 4° C., followed by quantification of the total proteins in the supernatant through the bicinchoninic acid assay (BCA) assay. Afterward, the proteins in the supernatant were mixed with the loading buffer and heated at 95° C. for 15 min. Equal amounts of proteins from different samples were loaded into 15% SDS-polyacrylamide gel (20 μg protein per lane) to separate target proteins. After separation, proteins were transferred to polyvinylidene fluoride (PVDF) membranes before the membranes were blocked with 5% nonfat milk in PBST. Then proteins were incubated with primary antibodies overnight at 4° C., followed by the incubation with the goat-anti-rabbit IgG H&L (HRP) secondary antibodies at room temperature for 2 h. Finally, the bands were detected with electrochemiluminescence (ECL) western blot substrate for imaging, and ImageJ software was used for quantification.

B16F10 cells [3] = test: Cell viability evaluation by CCK-8 assay; settings: for IC50: Mus musculus, read-out: IC50 of cell viability
Experimental: Cell viability evaluation: The cell viability of B16F10 cells treated with ferritin degraders with or without various inhibitors was evaluated by CCK-8 assay. Briefly, 5×10^3 cells were seeded in 96-well plates and cultured for 24 h for attachment. Then the medium in the corresponding wells, except the control, was replaced with 100 μL of medium containing the indicated degrader formulations with concentrations of 0.008, 0.04, 0.2, 1, and 5 μM. After incubation for 24 or 48 h, CCK-8 reagent was added and interacted with cells at 37° C. for 1 h. The absorbance was measured by a microplate reader (Infinite M Plex) at the detection wavelength of 450 nm.
For blocking assays with Z-VAD, NSCI, and VX-765, 5×10^3 cells were seeded in 96-well plates and cultured 24 h for attachment. Then the medium in the corresponding wells, except the control, was replaced with 100 μL of medium containing Z-VAD (10 μM), NSCI (0.1 μM), or VX-765 (10 μM). […] Following another 24-h incubation, CCK-8 reagents were added and interacted with cells at 37° C. for 1 h. The absorbance was measured by a microplate reader (Infinite® M Plex) at the detection wavelength of 450 nm. For blocking assays with DFOM, 5×10^3 cells were seeded in 96-well plates and cultured 24 h for attachment. […] Following another 20-h incubation, CCK-8 reagents were added and interacted with cells at 37° C. for 1 h. The absorbance was measured by a microplate reader (Infinite® M Plex) at the detection wavelength of 450 nm.

B16F10 cells [4] = test: Morphology observation (pyroptosis); type: cell-based, murine; settings: 5 μM, 24 h
Experimental: Morphology observation: 5×10^4 B16F10 cells were seeded in confocal dishes and cultured for 24 h at 37° C. […] After incubation for 24 h, the cells were washed with PBS and subjected to a Nikon Eclipse Ti Intensilight fluorescence microscope in a phase contrast mode for observation.

CCCCCCCCC=CCCCCCCCC(=O)NCCCC(=O)NC(C(=O)N1CC(O)CC1C(=O)NCc1ccc(-c2scnc2C)cc1)C(C)(C)C (stereo not shown) [DeFer-2]
reduction of ferritin levels compared to DeFer-2epi (ferritin (Mus musculus) [1]; proteomics): 44.1% | selectivity of ferritin degradation (global protein abundance) (ferritin (Mus musculus) [1]; versus DeFer-2epi): strong on-target effect | ferritin expression over time (ferritin (Mus musculus) [2]; 0.5 μM, 0-24 h): reduced the ferritin expression in a time-dependent manner | ferritin degradation (ferritin (Mus musculus) [2]; 0.5 μM, 12 h (FIG. 5A)): successfully induced the ferritin degradation | degradation capacity compared among the three PROTACs (ferritin (Mus musculus) [2]; 0.5 μM, different time points): most potent degradation capacity with a longer duration of action | maximum ferritin degraded (ferritin (Mus musculus) [2]; 5 μM, 12 h): 58% | cytotoxicity against B16F10 cells (B16F10 cells [3]): severe cytotoxicity | IC50 (B16F10 cells [3]; B16-F10, 24 h): 3.1 µM | IC50 (B16F10 cells [3]; B16-F10, 48 h): 1.5 µM | morphology of dying cells (B16F10 cells [4]): obvious swelling and characteristic membrane blebbing
